Reference: patent US10821115B2, “Compounds that inhibit Mcl-1 protein” (priority 2017, dated 2020)

Tests used:
[1] = molecular target: recombinant human Mcl-1 (residues 171-327) / Bim interaction (Homo sapiens (Human), UniProt Q07820); experiment: biochemical; assay type: binding; settings: 0.1 nM Mcl-1(171-327), 0.05 nM biotin-Bim (51-76); read-out: Mcl-1 HTRF IC50
[2] = system: human multiple myeloma cell line, OPM-2; experiment: Cell viability assay (OPM-2 10 FBS), CellTiter-Glo; assay type: cell-based; settings: Homo sapiens, OPM-2, 16 h, read-out: OPM-2 10% FBS IC50 IP, OPM-2 cells, 10% FBS, 16 h incubation
Outline: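 Cells were seeded at 3000 cells/well in RPMI 1640 with 10% FBS and exposed to serially diluted compounds for 16 h at 37 °C, 5% CO2.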

Chain of recombinant human Mcl-1 (residues 171-327) / Bim interaction (Q07820 171-327): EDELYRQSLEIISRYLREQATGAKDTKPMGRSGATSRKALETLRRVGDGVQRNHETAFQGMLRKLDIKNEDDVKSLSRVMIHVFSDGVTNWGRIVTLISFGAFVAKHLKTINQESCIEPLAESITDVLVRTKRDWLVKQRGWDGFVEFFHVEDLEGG

Structure (SMILES) | IC50 [1] [nM] | IC50 [2] [nM]
CCO[C@]1(CN2CCN(CCOC)CC2)/C=C/C[C@H](C)[C@@H](C)S(=O)(=O)NC(=O)c2ccc3c(c2)N(C[C@@H]2CC[C@H]21)C[C@@]1(CCCc2cc(Cl)ccc21)CO3 [Example 123, (1S,3′R,6′R,7′R,8′E,11′S,12′R)-6-chloro-7′-ethoxy-7′-((4-(2-methoxyethyl)-1-piperazinyl)methyl)-11′,12′-dimethyl-3,4-dihydro-2H,15′H-spiro[naphthalene-1,22′-[20]oxa[13]thia[1,14]diazatetracyclo [14.7.2.0~3,6~.0~19,24~]pentacosa[8,16,18,24]tetraen]-15′-one 13′,13′-dioxide] | 0.205 | 228
C[C@@H]1[C@@H](C)C/C=C/[C@](O)(CN(C)CCO)[C@@H]2CC[C@H]2CN2C[C@@]3(CCCc4cc(Cl)ccc43)COc3ccc(cc32)C(=O)NS1(=O)=O [Example 129] | 1.69 | 2630
C[C@@H]1[C@@H](C)C/C=C/[C@]2(CNCCO2)[C@@H]2CC[C@H]2CN2C[C@@]3(CCCc4cc(Cl)ccc43)COc3ccc(cc32)C(=O)NS1(=O)=O [Example 134, (1S,3′R,6′R,7′R,8′E,11′S,12′R)-6-chloro-11′,12′-dimethyl-3,4-dihydro-2H,15′H-dispiro[naphthalene-1,22′-[20]oxa[13]thia[1,14]diazatetracyclo [14.7.2.0~3,6~.0~19,24~]pentacosa[8,16,18,24]tetraene-7′,2″-[1,4]oxazinan]-15′-one 13′,13′-dioxide] | 4.64 | 3000
C[C@@H]1[C@@H](C)C/C=C/[C@]2(CN(CC3CCOCC3)CCO2)[C@@H]2CC[C@H]2CN2C[C@@]3(CCCc4cc(Cl)ccc43)COc3ccc(cc32)C(=O)NS1(=O)=O [Example 135, (1S,3′R,6′R,7′R,8′E,11′S,12′R)-6-chloro-11′,12′-dimethyl-4″- (tetrahydro-2H-pyran-4-ylmethyl)-3,4-dihydro-2H,15′H-dispiro[naphthalene-1,22′-[20]oxa[13]thia[1,14]diazatetracyclo [14.7.2.0~3,6~.0~19,24~]pentacosa[8,16,18,24]tetraene-7′,2″-[1,4]oxazinan]-15′-one 13′,13′-dioxide] | 8.18 | > 33300
C[C@@H]1[C@@H](C)C/C=C/[C@]2(CN(Cc3ccncc3)CCO2)[C@@H]2CC[C@H]2CN2C[C@@]3(CCCc4cc(Cl)ccc43)COc3ccc(cc32)C(=O)NS1(=O)=O [Example 136, (1S,3′R,6′R,7′R,8′E,11′S,12′R)-6-chloro-11′,12′-dimethyl-4″- (4-pyridinylmethyl)-3,4-dihydro-2H,15′H-dispiro[naphthalene-1,22′-[20]oxa[13]thia[1,14]diazatetracyclo [14.7.2.0~3,6~.0~19,24~]pentacosa[8,16,18,24]tetraene-7′,2″-[1,4]oxazinan]-15′-one 13′,13′-dioxide] | 4.7 | 1020
C[C@@H]1[C@@H](C)C/C=C/[C@]2(CN(Cc3cccnc3)CCO2)[C@@H]2CC[C@H]2CN2C[C@@]3(CCCc4cc(Cl)ccc43)COc3ccc(cc32)C(=O)NS1(=O)=O [Example 137, (1S,3′R,6′R,7′R,8′E,11′S,12′R)-6-chloro-11′,12′-dimethyl-4″- (3-pyridinylmethyl)-3,4-dihydro-2H,15′H-dispiro[naphthalene-1,22′-[20]oxa[13]thia[1,14]diazatetracyclo [14.7.2.0~3,6~.0~19,24~]pentacosa[8,16,18,24]tetraene-7′,2″-[1,4]oxazinan]-15′-one 13′,13′-dioxide] | 4.74 | 1150
C[C@@H]1[C@@H](C)C/C=C/[C@]2(CN(CC3CCCCC3)CCO2)[C@@H]2CC[C@H]2CN2C[C@@]3(CCCc4cc(Cl)ccc43)COc3ccc(cc32)C(=O)NS1(=O)=O [Example 139, (1S,3′R,6′R,7′R,8′E,11′S,12′R)-6-chloro-4″- (cyclohexylmethyl)-11′,12′-dimethyl-3,4-dihydro-2H,15′H-dispiro[naphthalene-1,22′-[20]oxa[13]thia[1,14]diazatetracyclo [14.7.2.0~3,6~.0~19,24~]pentacosa[8,16,18,24]tetraene-7′,2″-[1,4]oxazinan]-15′-one 13′,13′-dioxide] | 32 | > 33300
CO[C@]1(CN2CCN3C(=O)COC[C@@H]3C2)/C=C/C[C@H](C)[C@@H](C)S(=O)(=O)NC(=O)c2ccc3c(c2)N(C[C@@H]2CC[C@H]21)C[C@@]1(CCCc2cc(Cl)ccc21)CO3 [Example 140, (1S,3′R,6′R,7′R,8′E,11′S,12′R)-6-chloro-7′-methoxy-11′,12′-dimethyl-7′-(((9aS)-4-oxohexahydropyrazino[2,1-c][1,4]oxazin-8(1H)-yl)methyl)-3,4-dihydro-2H,15′H-spiro[naphthalene-1,22′-[20]oxa[13]thia[1,14]diazatetracyclo [14.7.2.0~3,6~.0~19,24~]pentacosa[8,16,18,24]tetraen]-15′-one 13′,13′-dioxide] | 0.098 | 125
CO[C@@]1(CN2CCN3C(=O)COC[C@@H]3C2)/C=C/C[C@H](C)[C@@H](C)S(=O)(=O)NC(=O)c2ccc3c(c2)N(C[C@@H]2CC[C@H]21)C[C@@]1(CCCc2cc(Cl)ccc21)CO3 [Example 141, (1S,3′R,6′R,7′S,8′E,11′S,12′R)-6-chloro-7′-methoxy-11′,12′-dimethyl-7′-(((9aS)-4-oxohexahydropyrazino[2,1-c][1,4]oxazin-8(1H)-yl)methyl)-3,4-dihydro-2H,15′H-spiro[naphthalene-1,22′-[20]oxa[13]thia[1,14]diazatetracyclo [14.7.2.0~3,6~.0~19,24~]pentacosa[8,16,18,24]tetraen]-15′-one 13′,13′-dioxide] | 0.152 | 367
CO[C@]1(CN2CCN3C(=O)[C@H](C)OC[C@@H]3C2)/C=C/C[C@H](C)[C@@H](C)S(=O)(=O)NC(=O)c2ccc3c(c2)N(C[C@@H]2CC[C@H]21)C[C@@]1(CCCc2cc(Cl)ccc21)CO3 [Example 142, (1S,3′R,6′R,7′R,8′E,11′S,12′R)-6-chloro-7′-methoxy-11′,12′-dimethyl-7′-(((3S,9aS)-3-methyl-4-oxohexahydropyrazino[2,1-c][1,4]oxazin-8(1H)-yl)methyl)-3,4-dihydro-2H,15′H-spiro[naphthalene-1,22′-[20]oxa[13]thia[1,14]diazatetracyclo [14.7.2.0~3,6~.0~19,24~]pentacosa[8,16,18,24]tetraen]-15′-one 13′,13′-dioxide] | 0.157 | 174
CO[C@@]1(CN2CCN3C(=O)[C@H](C)OC[C@@H]3C2)/C=C/C[C@H](C)[C@@H](C)S(=O)(=O)NC(=O)c2ccc3c(c2)N(C[C@@H]2CC[C@H]21)C[C@@]1(CCCc2cc(Cl)ccc21)CO3 [Example 143, (1S,3′R,6′R,7′S,8′E,11′S,12′R)-6-chloro-7′-methoxy-11′,12′-dimethyl-7′-(((3S,9aS)-3-methyl-4-oxohexahydropyrazino[2,1-c][1,4]oxazin-8(1H)-yl)methyl)-3,4-dihydro-2H,15′H-spiro[naphthalene-1,22′-[20]oxa[13]thia[1,14]diazatetracyclo [14.7.2.0~3,6~.0~19,24~]pentacosa[8,16,18,24]tetraen]-15′-one 13′,13′-dioxide] | 0.432 | 219
